Among the data in patent publication US11155517B2, “4-substituted phenylamine derivatives and their use to protect crops by fighting undesired phytopathogenic micoorganisms” (PI INDUSTRIES LTD., priority 2016, dated 2021) are inhibition of growth and pest or weed control values, retold here.

For assay [1], the system named is Pyricularia oryzae. Kind of assay: microbe, parasite or virus in culture. It counts as cell-based. The following applies: 168 h, read-out: % control compared to the untreated check (radial growth).
In assay [2] the test system is Alternaria solani. Kind of assay: Greenhouse Alternaria solani test in tomato, preventive. It counts as in vivo. The following applies: 24 h, tomato plants sprayed one day before inoculation, read-out: Efficacy (% control), disease severity vs untreated check. Here is the method:
Compounds were dissolved in 2% DMSO/Acetone & then mixed with water to calibrated spray volume of 50 ml. This 50 ml spray solution was poured into the spray bottles for further applications. To test the preventive activity of compounds, healthy young Tomato plants raised in the greenhouse were sprayed with active compound preparation at the stated application rates inside the spray cabinets using hallowcone nozzles. One day after treatment, the plants were inoculated with spore suspension (2% Malt) containing 0.24×10^6 Alternaria solani inoculum. The inoculated plants were then kept in greenhouse chamber at 22-24° C. temperature and 90-95% relative humidity for disease expression. […] Efficacy (% control) of the compounds was calculated by comparing the disease rating in the treatment with untreated control. The sprayed plants were also assessed for compound's phytotoxic effects by recording symptoms like necrosis, chlorosis and stunting.

The subject of assay [3] is Botrytis cinerea. Kind of assay: Botrytis cinerea (gray mold) in vitro test, radial growth on Potato Dextrose Agar. It counts as cell-based. The following applies: 168 h, 300 ppm, seven days, 22° C., read-out: % (control) compared to the untreated check (radial growth).
For assay [4], the system named is Rhizoctonia solani. Put plainly: Rhizoctonia solani (rice sheath blight/potato black scurf) in vitro test, radial growth on Potato Dextrose Agar. The following applies: 168 h, 300 ppm, seven days, 25° C., read-out: % control compared to the untreated check (radial growth). It is filed as cell-based.
Assay [5] relates to Botrytis cinera. Put plainly: Greenhouse Botrytis cinera test in tomato, preventive. It is filed as in vivo. The following applies: 24 h, plants sprayed one day before inoculation, read-out: Efficacy (% control), disease severity vs untreated check.
Assay [6] concerns Septoria lycopersici. Put plainly: Septoria lycopersici (leaf spot of tomato) in vitro test, radial growth on Potato Dextrose Agar. It is filed as cell-based. The following applies: 168 h, seven days, 25° C., read-out: % control compared to the untreated check (radial growth).
Assay [7] relates to Colletotrichum capsici. Put plainly: Colletotrichum capsici (anthracnose) in vitro test, radial growth on Potato Dextrose Agar. It is filed as cell-based. The following applies: Colletotrichum truncatum, 168 h; 300 ppm; seven days, 25° C.; read-out: % control compared to the untreated check (radial growth).
Assay [8] deals with Fusarium culmorum. Kind of assay: Fusarium culmorum (foot rot of cereals) in vitro test, radial growth on Potato Dextrose Agar. It is filed as cell-based. The following applies: Fusarium culmorum, 168 h, read-out: % control compared to the untreated check (radial growth).
In assay [9] the test system is Alternaria solani. Kind of assay: Alternaria solani (early blight of tomato/potato) in vitro test, radial growth on Potato Dextrose Agar. It counts as cell-based. The following applies: 168 h, 300 ppm, seven days, 25° C., read-out: % control compared to the untreated check (radial growth).
Assay [10] concerns Fusarium culmorum. Kind of assay: Greenhouse Fusarium culmorum test in wheat, preventive. It is filed as in vivo. The following applies: 24 h, read-out: Efficacy (% control), disease severity vs untreated check. Put shortly:
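Young greenhouse wheat sprayed preventively at stated rates (compounds in 2% DMSO/acetone, diluted in water), inoculated one day later with 2×10^6 Fusarium culmorum spores in 2% malt, held at 24 °C, 80-90% RH. Disease severity (0-100%) rated 3, 7, 10 and 15 days after application; % control versus untreated, phytotoxicity also recorded.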

Regarding `CCN(C)C=Nc1cc(C)c(Cc2ccc(C)cc2)cc1C` [Compound 9, N′-(2,5-dimethyl-4-(4-methylbenzyl)phenyl)-N-ethyl-N-methylformimidamide], the inhibition of growth at 300 ppm in assay [1] was over 75%; in [3], over 80%; in assay [4], over 80%; in assay [6], over 70%; in [7], over 80%; in [8], 75%. The inhibition of growth at 300 ppm in assay [9] is over 75%. Besides, the pest or weed control at 500 ppm in assay [2] and in [5] was 70 to 100% in each case.
Consider `CCN(C)C=Nc1cc(C)c(/C(=N\C)c2ccccc2)cc1C` [Compound 31, N′-(2,5-dimethyl-4-((Z)-(methylimino)(phenyl)methyl)phenyl)-N-ethyl-N-methylformimidamide], for which the inhibition of growth at 300 ppm is over 75% in [1]; over 80% in assay [4]; over 70% in assay [6]; 75% in assay [8]; over 75% in [9]. Further, the pest or weed control at 500 ppm in assay [2] and in assay [5] was 70 to 100% in each case.
Take `CCN(C)C=Nc1cc(C)c(Cc2cc(Cl)ccc2Cl)cc1C` [Compound 160, N′-(4-(2,5-dichlorobenzyl)-2,5-dimethylphenyl)-N-ethyl-N-methylformimidamide]: the inhibition of growth at 300 ppm in assay [1] was over 75%; in assay [3] it was over 80%; in assay [4], over 80%; in [6] it was over 70%; in assay [7], over 80%; in [8] it was 75%. In addition, the inhibition of growth at 300 ppm in assay [9] is over 75%. Further, the pest or weed control at 500 ppm in [2] and in assay [10] was 70 to 100% throughout.
With `CCN(C)C=Nc1cc(C)c(Cc2ccc(F)cc2F)cc1Cl` [Compound 180, N′-(2-chloro-4-(2,4-difluorobenzyl)-5-methylphenyl)-N-ethyl-N-methylformimidamide], the inhibition of growth at 300 ppm is over 75% in assay [1]; over 80% in [3]; over 80% in [4]; over 80% in assay [7]; 75% in assay [8]; over 75% in assay [9]. For the same molecule, the pest or weed control at 500 ppm in [2] and in assay [5] was 70 to 100% each time.
On to `Cc1cc(N=CN2CCOCC2)c(Cl)cc1Cc1ccccc1Cl` [Compound 40, N-(2-chloro-4-(2-chlorobenzyl)-5-methylphenyl)-1-morpholinomethanimine], for which the pest or weed control at 500 ppm in assay [2] and in assay [5] was 70 to 100% in each case. In addition, the inhibition of growth at 300 ppm in [3] was over 80%.
Regarding `CCN(C)C=Nc1cc(C)c(Cc2ccc(Cl)cc2Cl)cc1Cl` [Compound 179, N′-(2-chloro-4-(2,4-dichlorobenzyl)-5-methylphenyl)-N-ethyl-N-methylformimidamide], the inhibition of growth at 300 ppm in [1] was over 75%; in [3], over 80%; in [4], over 80%; in assay [7], over 80%; in [8] it was 75%; in assay [9] it was over 75%. In addition, the pest or weed control at 500 ppm in assay [2] and in [5] was 70 to 100% each time.
Turning to `CNC=Nc1cc(C)c(Cc2cccc(Br)c2F)cc1C` [Compound 41, N′-(4-(3-bromo-2-fluorobenzyl)-2,5-dimethylphenyl)-N-methylformimidamide], the inhibition of growth at 300 ppm in [1] was over 75%; in [3], over 80%; in assay [4], over 80%; in [6], over 70%; in [7], over 80%; in [8], 75%. Moreover, the inhibition of growth at 300 ppm in assay [9] was over 75%. Further, the pest or weed control at 500 ppm in assay [2] and in assay [10] was 70 to 100% in each case.
Turning to `CCN(C)C=Nc1cc(C)c(Cc2cccc(F)c2)cc1C` [Compound 29, N-ethyl-N′-(4-(3-fluorobenzyl)-2,5-dimethylphenyl)-N-methylformimidamide], the inhibition of growth at 300 ppm in assay [1] is over 75%; in assay [3] it was over 80%; in [4], over 80%; in [6] it was over 70%; in assay [7], over 80%; in assay [8], 75%. For the same molecule, the inhibition of growth at 300 ppm in assay [9] is over 75%. Also, the pest or weed control at 500 ppm in [2] and in [5] was 70 to 100% in each case.
With `CCN(C)C=Nc1cc(C)c(Cc2ccccc2S(C)(=O)=O)cc1C` [Compound 25, N′-(2,5-dimethyl-4-(2-(methylsulfonyl)benzyl)phenyl)-N-ethyl-N-methylformimidamide], the inhibition of growth at 300 ppm is over 75% in assay [1]; over 80% in [4]; over 70% in [6]; over 80% in assay [7]; over 75% in assay [9]. For the same molecule, the pest or weed control at 500 ppm in assay [2] and in assay [5] was 70 to 100% throughout.
`CCN(C)C=Nc1cc(C)c(Cc2cccc(Br)c2F)cc1C` [Compound 27, N′-(4-(3-bromo-2-fluorobenzyl)-2,5-dimethylphenyl)-N-ethyl-N-methylformimidamide]: the inhibition of growth at 300 ppm is over 75% in assay [1]; over 80% in assay [3]; over 80% in [4]; over 70% in assay [6]; over 80% in assay [7]; 75% in [8]. Besides, the inhibition of growth at 300 ppm in [9] was over 75%. For the same molecule, the pest or weed control at 500 ppm in [2] and in assay [5] was 70 to 100% each time.
As for `CNC=Nc1cc(C)c(Cc2cccc(F)c2)cc1Cl` [Compound 42, N′-(2-chloro-4-(3-fluorobenzyl)-5-methylphenyl)-N-methylformimidamide], the inhibition of growth at 300 ppm in [1] was over 75%; in assay [3], over 80%; in assay [4], over 80%; in [6] it was over 70%; in [7], over 80%; in [8] it was 75%. Moreover, in assay [9], the inhibition of growth at 300 ppm was over 75%. The pest or weed control at 500 ppm in assay [2] and in [10] was 70 to 100% in each case.
Take `Cc1cc(N=CN2CCCCC2)c(C)cc1Cc1ccc(F)c(Cl)c1` [Compound 35, N-(4-(3-chloro-4-fluorobenzyl)-2,5-dimethylphenyl)-1-(piperidin-1-yl)methanimine]: the inhibition of growth at 300 ppm in [1] is over 75%; in assay [3], over 80%; in assay [4], over 80%; in assay [6], over 70%; in [7], over 80%; in assay [9], over 75%. In addition, the pest or weed control at 500 ppm in assay [2] and in assay [10] was 70 to 100% in each case.
